Test results from the NIST ThermoML archive (doi:10.1021/je201014c).

Test: mn = molality of the nth substance listed, in mol/kg
Details: 100 kPa, Liquid, Direct current cell with electrodes

CCn1cc[n+](C)c1.F[B-](F)(F)F [1-ethyl-3-methylimidazolium tetrafluoroborate] + CN(C)C=O
Details	molar conductivity [S·m2/mol]
283.15 K, m1 = 0.0001021	0.007524
283.15 K, m1 = 0.0002894	0.00744
283.15 K, m1 = 0.0004617	0.007387
283.15 K, m1 = 0.000707	0.007326
283.15 K, m1 = 0.001158	0.007238
283.15 K, m1 = 0.001876	0.007128
283.15 K, m1 = 0.002909	0.007001
283.15 K, m1 = 0.00391	0.006899
283.15 K, m1 = 0.006046	0.006724
283.15 K, m1 = 0.008043	0.006596
283.15 K, m1 = 0.01002	0.006492
283.15 K, m1 = 0.01201	0.006403
283.15 K, m1 = 0.0149	0.006286
288.15 K, m1 = 9.159e-05	0.008075
288.15 K, m1 = 0.0002695	0.007983
288.15 K, m1 = 0.0005098	0.007901
288.15 K, m1 = 0.0006932	0.007851
288.15 K, m1 = 0.001168	0.007746
288.15 K, m1 = 0.001915	0.007619
288.15 K, m1 = 0.002887	0.007489
288.15 K, m1 = 0.003934	0.007374
288.15 K, m1 = 0.005914	0.007199
288.15 K, m1 = 0.007975	0.007057
288.15 K, m1 = 0.009937	0.006944
288.15 K, m1 = 0.01205	0.00684
288.15 K, m1 = 0.01487	0.006715
293.15 K, m1 = 0.0001225	0.008604
293.15 K, m1 = 0.0002931	0.008516
293.15 K, m1 = 0.0004907	0.008442
293.15 K, m1 = 0.0007255	0.008372
293.15 K, m1 = 0.001177	0.008263
293.15 K, m1 = 0.001892	0.00813
293.15 K, m1 = 0.002911	0.007981
293.15 K, m1 = 0.003932	0.00786
293.15 K, m1 = 0.005979	0.007668
293.15 K, m1 = 0.007979	0.00752
293.15 K, m1 = 0.009955	0.007398
293.15 K, m1 = 0.01193	0.007292
293.15 K, m1 = 0.0148	0.007155
298.15 K, m1 = 0.0001133	0.009167
298.15 K, m1 = 0.0002704	0.009077
298.15 K, m1 = 0.000473	0.008993
298.15 K, m1 = 0.0006719	0.008926
298.15 K, m1 = 0.001151	0.008798
298.15 K, m1 = 0.001932	0.008639
298.15 K, m1 = 0.00291	0.008486
298.15 K, m1 = 0.003882	0.008361
298.15 K, m1 = 0.005957	0.008152
298.15 K, m1 = 0.007912	0.007996
298.15 K, m1 = 0.009961	0.007859
298.15 K, m1 = 0.012	0.007742
298.15 K, m1 = 0.01485	0.007598
303.15 K, m1 = 0.0001433	0.009709
303.15 K, m1 = 0.0002976	0.009622
303.15 K, m1 = 0.000507	0.009532
303.15 K, m1 = 0.0007136	0.00946
303.15 K, m1 = 0.001172	0.00933
303.15 K, m1 = 0.001894	0.009172
303.15 K, m1 = 0.002913	0.008999
303.15 K, m1 = 0.003926	0.008861
303.15 K, m1 = 0.005879	0.008649
303.15 K, m1 = 0.007956	0.008471
303.15 K, m1 = 0.009924	0.00833
303.15 K, m1 = 0.01202	0.0082
303.15 K, m1 = 0.01489	0.00805
308.15 K, m1 = 0.0001026	0.01031
308.15 K, m1 = 0.0003641	0.010155
308.15 K, m1 = 0.0005016	0.010095
308.15 K, m1 = 0.0006664	0.010033
308.15 K, m1 = 0.001147	0.009884
308.15 K, m1 = 0.001947	0.009697
308.15 K, m1 = 0.002894	0.009525
308.15 K, m1 = 0.003883	0.009379
308.15 K, m1 = 0.00584	0.009149
308.15 K, m1 = 0.007991	0.008948
308.15 K, m1 = 0.00998	0.008792
308.15 K, m1 = 0.01192	0.008661
308.15 K, m1 = 0.01486	0.008494
313.15 K, m1 = 9.519e-05	0.010895
313.15 K, m1 = 0.0002775	0.010772
313.15 K, m1 = 0.000472	0.010677
313.15 K, m1 = 0.0006836	0.010592
313.15 K, m1 = 0.001159	0.010438
313.15 K, m1 = 0.001948	0.010242
313.15 K, m1 = 0.002909	0.010057
313.15 K, m1 = 0.003934	0.009897
313.15 K, m1 = 0.005955	0.009647
313.15 K, m1 = 0.007964	0.009449
313.15 K, m1 = 0.009905	0.009289
313.15 K, m1 = 0.01192	0.009147
313.15 K, m1 = 0.0152	0.008968
318.15 K, m1 = 0.0001002	0.011475
318.15 K, m1 = 0.0002722	0.011357
318.15 K, m1 = 0.0004294	0.011275
318.15 K, m1 = 0.0006853	0.011165
318.15 K, m1 = 0.001173	0.011
318.15 K, m1 = 0.001899	0.010808
318.15 K, m1 = 0.002947	0.010593
318.15 K, m1 = 0.003909	0.010433
318.15 K, m1 = 0.005941	0.010163
318.15 K, m1 = 0.007935	0.009952
318.15 K, m1 = 0.009999	0.00977
318.15 K, m1 = 0.012	0.009623
318.15 K, m1 = 0.01494	0.009458
